According to patent publication US20260028326A1, “COMPOUND BASED ON ISOINDOLINE-SUBSTITUTED GLUTARIMIDE BACKBONE AND USE THEREOF” (GLUETACS THERAPEUTICS (SHANGHAI) CO., LTD., priority 2022, published 2026):

Experiments:
[1] = molecular target: human Cereblon WT GST-tagged protein (Homo sapiens (Human), UniProt Q96SW2); assay: CRBN-binding affinity, HTRF (CEREBLON BINDING kit)
Method in brief: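 HTRF competition readout: compounds compete with a thalidomide-Re conjugate for GST-tagged wild-type human CRBN detected via Eu-labelled anti-GST antibody. Inhibition rate derived relative to protein-free blank wells.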

IKZF1 protein = IKZF1 protein (Homo sapiens (Human), UniProt Q13422+Q96SW2); assay: Western-blot assay of substrate protein degradation in hPBMC, IKZF1; type: cell-based; conditions: for residual substrate protein level, IKZF1: hPBMC cells, compound 500 nM, 24 hours, Western blot
IKZF3 protein = IKZF3 protein (Homo sapiens (Human), UniProt Q96SW2+Q9UKT9); assay: Western-blot assay of substrate protein degradation in hPBMC, IKZF3; type: cell-based; conditions: for residual substrate protein level, IKZF3: hPBMC cells, compound 500 nM, 24 hours, Western blot
GSPT1 protein = GSPT1 protein (Homo sapiens (Human), UniProt P15170+Q96SW2); assay: Western-blot assay of substrate protein degradation in hPBMC, GSPT1; type: cell-based; conditions: for residual substrate protein level, GSPT1: hPBMC cells, compound 500 nM, 24 hours, Western blot
Mino cells = assay: Tumor cell proliferation IC50 (CCK-8), Mino; conditions: Homo sapiens, 72 h, read-out: IC50 for inhibiting the proliferation of tumor cells, Mino;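 note: cell viability assessed with CCK-8 reagent after compound exposure, IC50 derived from plotted growth inhibition curves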
Protocol: (§1) The tumor cells used herein were cultured in a cell culture medium listed in table A at 37° C. in an incubator with 5% CO2.
(§2) After the cells were treated with the compounds of the present disclosure for a period of time, the cell viability detection reagent was added to the culture medium for cell viability assessment according to the instructions provided with the CCK-8 kit. […] The growth inhibition of the compounds of the present disclosure on cells was plotted by Prism Graphpad software, and the IC50 values of the compounds of the present disclosure were calculated therefrom.

MM.1S cells = assay: Tumor cell proliferation IC50 (CCK-8), MM.1S; conditions: Homo sapiens, MM1.S, 72 h, read-out: IC50 for inhibiting the proliferation of tumor cells, MM.1S;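 note: viability of cultured cells read by CCK-8 reagent after compound exposure, growth inhibition curves fitted to derive IC50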
Daudi cells = assay: Tumor cell proliferation IC50 (CCK-8), Daudi; conditions: Homo sapiens, read-out: IC50 for inhibiting the proliferation of tumor cells, Daudi;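 note: cell viability read with CCK-8 reagent after compound exposure of Daudi cells, IC50 derived from plotted growth inhibition curves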
Protocol: as §1, §2

MV-4-11 cells = assay: Tumor cell proliferation IC50 (CCK-8), MV-4-11; conditions: Homo sapiens, MV4-11, 96 h, read-out: IC50 for inhibiting the proliferation of tumor cells, MV-4-11
Protocol: as §1, §2

Kasumi-1 cells = assay: Tumor cell proliferation IC50 (CCK-8), Kasumi-1; conditions: Homo sapiens, Kasumi 1, 72 h, read-out: IC50 for inhibiting the proliferation of tumor cells, Kasumi-1
Protocol: as §1, §2

CCRF-CEM cells = assay: Tumor cell proliferation IC50 (CCK-8), CCRF-CEM; conditions: Homo sapiens, 96 h, read-out: IC50 for inhibiting the proliferation of tumor cells, CCRF-CEM;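 note: cell viability measured with CCK-8 reagent after compound treatment, IC50 taken from plotted growth inhibition curves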
Protocol: as §1, §2

[2] = Pharmacokinetic study, oral administration, mouse plasma; type: in vivo, mice
Protocol: The experimental animals used can be those commonly used in pharmacokinetic experiments, e.g., adult and healthy rodents (e.g., mice, rats (such as Sprague-Dawley (SD) rats), guinea pigs) or non-rodents (rabbits, dogs, and monkeys). In the present disclosure, mice were used as the experimental animals.
The experimental animals were divided into two groups: a control group (for collecting blank plasma) and an orally administered group (dosed at 10 mg/kg or 30 mg/kg). Blood samples were collected at predetermined sampling time points after administration, such as 0.25 h, 0.5 h, 1 h, 2 h, 4 h, 8 h, and 24 h post-dosing. Blank plasma was collected from the control group.
Plasma samples were preprocessed before analysis: 10 μL of 50% acetonitrile and 200 μL of internal standard solution (containing 50 ng/mL dexamethasone in acetonitrile) were added to 10 μL of plasma samples. For the blank control group, the same volume of acetonitrile was added instead of the internal standard. The processed samples were vortexed, centrifuged, and the supernatant was taken for LC-MS/MS injection analysis.
After preparing standard curves and quality control (QC) samples, the concentrations of the compounds in the plasma samples were determined by LC-MS/MS analysis. Based on the plasma concentration data obtained from LC-MS/MS analysis, the pharmacokinetic parameters of the test compounds were calculated using the non-compartmental model in the pharmacokinetic calculation software WinNonlin v8.1.

[3] = hPBMC, 24 h, serially diluted 0.03-1000 nM

IKZF3 protein, sequence (Q9UKT9 whole entry): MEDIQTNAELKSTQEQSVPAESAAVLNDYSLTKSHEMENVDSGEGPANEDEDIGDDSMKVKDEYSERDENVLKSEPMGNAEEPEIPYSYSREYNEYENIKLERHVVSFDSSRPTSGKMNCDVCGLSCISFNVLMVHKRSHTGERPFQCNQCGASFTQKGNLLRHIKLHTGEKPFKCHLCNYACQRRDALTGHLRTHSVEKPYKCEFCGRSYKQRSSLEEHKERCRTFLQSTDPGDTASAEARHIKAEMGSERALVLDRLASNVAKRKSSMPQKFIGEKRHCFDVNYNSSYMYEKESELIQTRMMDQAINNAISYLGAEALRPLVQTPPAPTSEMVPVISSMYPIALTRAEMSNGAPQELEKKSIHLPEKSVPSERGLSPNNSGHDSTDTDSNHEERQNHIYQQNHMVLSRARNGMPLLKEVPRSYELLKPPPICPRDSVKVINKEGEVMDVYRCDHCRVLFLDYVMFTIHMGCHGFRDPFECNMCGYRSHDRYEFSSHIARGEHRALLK
IKZF3 protein, sequence (Q96SW2 whole entry): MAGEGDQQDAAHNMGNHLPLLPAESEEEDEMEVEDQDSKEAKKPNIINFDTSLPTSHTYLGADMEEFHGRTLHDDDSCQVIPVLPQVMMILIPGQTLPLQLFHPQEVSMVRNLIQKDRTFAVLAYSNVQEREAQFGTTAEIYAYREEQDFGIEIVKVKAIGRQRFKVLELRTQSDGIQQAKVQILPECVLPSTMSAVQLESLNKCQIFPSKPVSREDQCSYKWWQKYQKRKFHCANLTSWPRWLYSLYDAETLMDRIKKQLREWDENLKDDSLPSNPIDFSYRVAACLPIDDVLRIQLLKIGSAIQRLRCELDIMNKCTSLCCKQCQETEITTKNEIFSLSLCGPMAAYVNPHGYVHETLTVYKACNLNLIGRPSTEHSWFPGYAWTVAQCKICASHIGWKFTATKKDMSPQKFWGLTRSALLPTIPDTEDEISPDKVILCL
IKZF3 protein, sequence (Q16531 whole entry partner): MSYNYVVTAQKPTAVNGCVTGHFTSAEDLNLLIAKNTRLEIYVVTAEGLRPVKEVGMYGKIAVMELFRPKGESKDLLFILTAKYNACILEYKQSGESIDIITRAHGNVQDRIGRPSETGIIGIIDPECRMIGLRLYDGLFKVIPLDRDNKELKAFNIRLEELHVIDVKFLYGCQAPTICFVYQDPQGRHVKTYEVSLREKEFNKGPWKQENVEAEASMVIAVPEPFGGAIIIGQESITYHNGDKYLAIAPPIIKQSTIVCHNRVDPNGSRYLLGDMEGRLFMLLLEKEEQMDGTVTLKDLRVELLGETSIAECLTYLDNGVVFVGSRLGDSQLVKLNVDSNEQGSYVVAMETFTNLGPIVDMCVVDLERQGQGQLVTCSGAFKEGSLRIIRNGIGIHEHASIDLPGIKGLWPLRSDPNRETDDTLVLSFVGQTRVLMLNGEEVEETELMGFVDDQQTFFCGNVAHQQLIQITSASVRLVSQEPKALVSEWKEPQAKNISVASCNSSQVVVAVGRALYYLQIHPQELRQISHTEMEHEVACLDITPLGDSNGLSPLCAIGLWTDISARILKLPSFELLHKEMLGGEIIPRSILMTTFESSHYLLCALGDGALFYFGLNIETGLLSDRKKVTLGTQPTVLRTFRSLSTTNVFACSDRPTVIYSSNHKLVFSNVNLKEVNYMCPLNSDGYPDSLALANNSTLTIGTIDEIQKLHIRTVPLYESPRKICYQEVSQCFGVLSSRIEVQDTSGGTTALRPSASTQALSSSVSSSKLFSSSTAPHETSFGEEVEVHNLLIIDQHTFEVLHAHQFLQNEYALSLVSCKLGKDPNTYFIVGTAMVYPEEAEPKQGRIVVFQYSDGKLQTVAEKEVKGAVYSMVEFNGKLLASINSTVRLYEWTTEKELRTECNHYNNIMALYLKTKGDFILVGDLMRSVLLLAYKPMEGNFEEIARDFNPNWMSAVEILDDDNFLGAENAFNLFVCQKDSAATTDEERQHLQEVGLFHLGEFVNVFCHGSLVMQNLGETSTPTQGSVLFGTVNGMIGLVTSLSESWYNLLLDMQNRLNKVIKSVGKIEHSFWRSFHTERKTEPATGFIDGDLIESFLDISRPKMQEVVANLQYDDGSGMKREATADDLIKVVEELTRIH
human Cereblon WT GST-tagged protein, sequence (Q96SW2 whole entry): as the sequence (Q96SW2 whole entry) above
GSPT1 protein, sequence (P15170 whole entry): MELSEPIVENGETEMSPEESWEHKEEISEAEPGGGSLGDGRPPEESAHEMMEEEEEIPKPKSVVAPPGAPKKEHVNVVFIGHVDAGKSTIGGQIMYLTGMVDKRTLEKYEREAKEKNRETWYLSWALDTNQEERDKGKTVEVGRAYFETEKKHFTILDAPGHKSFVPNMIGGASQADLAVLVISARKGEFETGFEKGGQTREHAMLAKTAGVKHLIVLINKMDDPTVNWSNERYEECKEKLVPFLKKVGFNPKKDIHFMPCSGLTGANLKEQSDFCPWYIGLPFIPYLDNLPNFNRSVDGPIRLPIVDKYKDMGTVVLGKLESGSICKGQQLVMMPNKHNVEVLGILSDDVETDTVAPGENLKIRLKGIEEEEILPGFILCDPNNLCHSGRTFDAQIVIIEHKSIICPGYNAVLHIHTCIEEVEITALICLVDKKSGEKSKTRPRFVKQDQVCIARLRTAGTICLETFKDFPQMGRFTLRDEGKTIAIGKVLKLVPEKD
GSPT1 protein, sequence (Q96SW2 whole entry): as the sequence (Q96SW2 whole entry) above
GSPT1 protein, sequence (Q16531 whole entry partner): as the sequence (Q16531 whole entry partner) above
IKZF1 protein, sequence (Q13422 whole entry): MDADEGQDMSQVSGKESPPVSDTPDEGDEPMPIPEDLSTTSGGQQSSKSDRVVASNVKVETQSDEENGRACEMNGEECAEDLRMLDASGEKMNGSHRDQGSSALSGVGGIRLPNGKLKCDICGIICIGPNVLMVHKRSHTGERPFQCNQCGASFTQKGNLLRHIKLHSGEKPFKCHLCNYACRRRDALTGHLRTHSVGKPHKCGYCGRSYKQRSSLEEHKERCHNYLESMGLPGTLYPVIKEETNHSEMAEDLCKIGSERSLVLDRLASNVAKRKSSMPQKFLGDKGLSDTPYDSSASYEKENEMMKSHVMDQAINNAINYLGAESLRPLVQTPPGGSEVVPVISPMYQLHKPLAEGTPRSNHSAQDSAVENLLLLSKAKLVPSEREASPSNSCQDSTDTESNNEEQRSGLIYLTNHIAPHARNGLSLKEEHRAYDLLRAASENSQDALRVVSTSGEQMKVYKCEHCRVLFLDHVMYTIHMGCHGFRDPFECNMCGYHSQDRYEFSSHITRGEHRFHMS
IKZF1 protein, sequence (Q96SW2 whole entry): as the sequence (Q96SW2 whole entry) above
IKZF1 protein, sequence (Q16531 whole entry partner): as the sequence (Q16531 whole entry partner) above

| SMILES | IC50 [1] [nM] | IC50 (Mino cells) [nM] | IC50 (MM.1S cells) [nM] | IC50 (Daudi cells) [nM] | IC50 (MV-4-11 cells) [nM] | IC50 (Kasumi-1 cells) [nM] | IC50 (CCRF-CEM cells) [nM] | AUC(0-t) ([2]; p.o. 10 mg/kg) [ng·h/mL] | AUC(0-t) ([2]; p.o. 30 mg/kg) [ng·h/mL] | concentration at which significant degradation effects on IKZF1 protein are exhibited (FIG. 1) (IKZF1 protein; [3]) [nM] | concentration at which significant degradation effects on IKZF3 protein are exhibited (FIG. 1) (IKZF3 protein; [3]) [nM] | concentration at which significant degradation effects on GSPT1 protein are exhibited (FIG. 1) (GSPT1 protein; [3]) [nM] | residual substrate protein level, IKZF1 (IKZF1 protein) | residual substrate protein level, IKZF3 (IKZF3 protein) | residual substrate protein level, GSPT1 (GSPT1 protein) |
| --- | --- | --- | --- | --- | --- | --- | --- | --- | --- | --- | --- | --- | --- | --- | --- |
| O=C1CCC(N2Cc3cc(CC4CCN(C(=O)c5ccccc5-c5ccc(Cl)cc5)CC4)ccc3C2=O)C(=O)N1 (centres unmarked) [GT-05467, 3-(5-((1-(4′-chloro-[1,1′-biphenyl]-2-carbonyl)piperidin-4-yl)methyl)-1-oxoisoindolin-2-yl)piperidine-2,6-dione] | 520 | 10 to 50 | 10 to 50 | 100 to 500 | 10 to 50 | 10 to 50 | 5 to 10 |  |  |  |  |  | B (B represents a residual substrate protein level of >50%) | B (B represents a residual substrate protein level of >50%) | A (A represents a residual substrate protein level of <50%) |
| O=C1CCC(N2Cc3cc(CN4CCN(Cc5ccccc5-c5ccc(F)cc5)CC4)ccc3C2=O)C(=O)N1 (centres unmarked) [GT-04256, 3-(5-((4-((4′-fluoro-[1,1′-biphenyl]-2-yl)methyl)piperazin-1-yl)methyl)-1-oxoisoindolin-2-yl)piperidine-2,6-dione] | 1420 |  |  |  |  |  |  | ≤ 500 |  |  |  |  | A (A represents a residual substrate protein level of <50%) | A (A represents a residual substrate protein level of <50%) | A (A represents a residual substrate protein level of <50%) |
| CC1(C)CCC(CN2CC3CCC(C2)N3Cc2cc3c(cc2F)C(=O)N(C2CCC(=O)NC2=O)C3)=C(c2ccc(Cl)cc2)C1 (centres unmarked) [GT-05494, 3-(5-((3-((4′-chloro-5,5-dimethyl-3,4,5,6-tetrahydro-[1,1′-biphenyl]-2-yl)methyl)-3,8-diazabicyclo[3.2.1]octan-8-yl)methyl)-6-fluoro-1-oxoisoindolin-2-yl)piperidine-2,6-dione] |  |  | 500 to 1000 |  | 100 to 500 |  | 100 to 500 |  |  |  |  |  | A (A represents a residual substrate protein level of <50%) | A (A represents a residual substrate protein level of <50%) | A (A represents a residual substrate protein level of <50%) |
| O=C1CCC(N2Cc3cc(CN4CCN(C(=O)c5ccccc5-c5ccc(Cl)cc5)CC4)c(F)cc3C2=O)C(=O)N1 (centres unmarked) [GT-05650, 3-(5-((4-(4′-chloro-[1,1′-biphenyl]-2-carbonyl)piperazin-1-yl)methyl)-6-fluoro-1-oxoisoindolin-2-yl)piperidine-2,6-dione] | 940 | 50 to 100 | 10 to 50 | 100 to 500 |  |  | 10 to 50 |  |  |  |  |  | A (A represents a residual substrate protein level of <50%) | A (A represents a residual substrate protein level of <50%) | A (A represents a residual substrate protein level of <50%) |
| O=C1CCC(N2Cc3cc(C=C4CN(C(=O)c5ccccc5-c5ccc(Cl)cc5)C4)ccc3C2=O)C(=O)N1 (centres unmarked) [GT-05482, 3-(5-((1-(4′-chloro-[1,1′-biphenyl]-2-carbonyl)azetidin-3-ylidene)methyl)-1-oxoisoindolin-2-yl)piperidine-2,6-dione] | 330 | 5 to 10 | 5 to 10 | 10 to 50 | 5 to 10 | 10 to 50 | 5 to 10 |  |  |  |  |  | B (B represents a residual substrate protein level of >50%) | B (B represents a residual substrate protein level of >50%) | A (A represents a residual substrate protein level of <50%) |
| CC1(C)CCC(CN2CCN(Cc3ccc4c(c3F)CN(C3CCC(=O)NC3=O)C4=O)CC2)=C(c2ccc(F)cc2)C1 (centres unmarked) [GT-05390, 3-(4-fluoro-5-((4-((4′-fluoro-5,5-dimethyl-3,4,5,6-tetrahydro-[1,1′-biphenyl]-2-yl)methyl)piperazin-1-yl)methyl)-1-oxoisoindolin-2-yl)piperidine-2,6-dione] | 500 | 10 to 50 | 10 to 50 |  | 100 to 500 |  | 50 to 100 |  |  |  |  |  | A (A represents a residual substrate protein level of <50%) | A (A represents a residual substrate protein level of <50%) | A (A represents a residual substrate protein level of <50%) |

More lines, main results first:

| IC50 [1] [nM] | IC50 (Mino cells) [nM] | IC50 (MM.1S cells) [nM] | IC50 (Daudi cells) [nM] | IC50 (MV-4-11 cells) [nM] | IC50 (Kasumi-1 cells) [nM] | IC50 (CCRF-CEM cells) [nM] | AUC(0-t) ([2]; p.o. 10 mg/kg) [ng·h/mL] | AUC(0-t) ([2]; p.o. 30 mg/kg) [ng·h/mL] | concentration at which significant degradation effects on IKZF1 protein are exhibited (FIG. 1) (IKZF1 protein; [3]) [nM] | concentration at which significant degradation effects on IKZF3 protein are exhibited (FIG. 1) (IKZF3 protein; [3]) [nM] | concentration at which significant degradation effects on GSPT1 protein are exhibited (FIG. 1) (GSPT1 protein; [3]) [nM] | SMILES | residual substrate protein level, IKZF1 (IKZF1 protein) | residual substrate protein level, IKZF3 (IKZF3 protein) | residual substrate protein level, GSPT1 (GSPT1 protein) |
| --- | --- | --- | --- | --- | --- | --- | --- | --- | --- | --- | --- | --- | --- | --- | --- |
| 160 |  |  |  |  |  |  | ≤ 500 |  |  |  |  | O=C1CCC(N2Cc3cc(CC4CN(C(=O)c5ccccc5-c5ccc(Cl)cc5)C4)ccc3C2=O)C(=O)N1 (centres unmarked) [GT-03922, 3-(5-((1-(4′-chloro-[1,1′-biphenyl]-2-carbonyl)azetidin-3-yl)methyl)-1-oxoisoindolin-2-yl)piperidine-2,6-dione] | A (A represents a residual substrate protein level of <50%) | A (A represents a residual substrate protein level of <50%) | A (A represents a residual substrate protein level of <50%) |
|  |  |  |  |  |  |  |  | > 500 |  |  |  | CC1(C)CCC(CN2CCN(Cc3cccc4c3CN(C3CCC(=O)NC3=O)C4=O)CC2)=C(c2ccc(Cl)cc2)C1 (centres unmarked) [GT-03649, 3-(4-((4-((4′-chloro-5,5-dimethyl-3,4,5,6-tetrahydro-[1,1′-biphenyl]-2-yl)methyl)piperazin-1-yl)methyl)-1-oxoisoindolin-2-yl)piperidine-2,6-dione] |  |  |  |
|  | 100 to 500 | 100 to 500 | 500 to 1000 | 100 to 500 | 100 to 500 | 50 to 100 |  |  |  |  |  | O=C1CCC(N2C(=O)c3ccc(CN4CCN(Cc5ccccc5-c5ccc(Cl)cc5)CC4)cc3C2=O)C(=O)N1 (centres unmarked) [GT-05497, 5-((4-((4′-chloro-[1,1′-biphenyl]-2-yl)methyl)piperazin-1-yl)methyl)-2-(2,6-dioxopiperidin-3-yl)isoindoline-1,3-dione] | B (B represents a residual substrate protein level of >50%) | A (A represents a residual substrate protein level of <50%) | A (A represents a residual substrate protein level of <50%) |
| 680 | 10 to 50 | 50 to 100 | 500 to 1000 |  |  | 500 to 1000 |  |  | < 3 | < 3 | < 3 | O=C1CCC(N2Cc3cc(CN4CCN(Cc5ccc(-c6ccc(Cl)cc6)cc5)CC4)ccc3C2=O)C(=O)N1 (centres unmarked) [GT-05598, 3-(5-((4-((4′-chloro-[1,1′-biphenyl]-4-yl)methyl)piperazin-1-yl)methyl)-1-oxoisoindolin-2-yl)piperidine-2,6-dione] | A (A represents a residual substrate protein level of <50%) | A (A represents a residual substrate protein level of <50%) | B (B represents a residual substrate protein level of >50%) |
| 570 | 5 to 10 | 5 to 10 | 10 to 50 | < 5 | 10 to 50 | < 5 |  |  |  |  |  | CC1(C)CCC(CN2CCN(Cc3cc4c(cc3F)C(=O)N(C3CCC(=O)NC3=O)C4)CC2)=C(c2ccc(F)cc2)C1 (centres unmarked) [GT-05391, 3-(6-fluoro-5-((4-((4′-fluoro-5,5-dimethyl-3,4,5,6-tetrahydro-[1,1′-biphenyl]-2-yl)methyl)piperazin-1-yl)methyl)-1-oxoisoindolin-2-yl)piperidine-2,6-dione] | A (A represents a residual substrate protein level of <50%) | A (A represents a residual substrate protein level of <50%) | A (A represents a residual substrate protein level of <50%) |
